From patent US11572590B2, “Methods for evaluating tumor cell spheroids using 3D microfluidic cell culture device” (Dana-Farber Cancer Institute, Inc., priority 2017, dated 2023)
Like-named read-outs stand apart in the source and are kept apart here.

Tests used:
Assay in all cases: SelectScreen Kinase Profiling, single point inhibition and IC50 for off-target kinases
Assay type in all cases: biochemical
off-target kinases [1] = biological target: T1, off-target kinases (Homo sapiens, UniProt O14920); details: IKBKB (IKK beta), ATP Km app, ZLYTE
T1 sequence (O14920 1-756): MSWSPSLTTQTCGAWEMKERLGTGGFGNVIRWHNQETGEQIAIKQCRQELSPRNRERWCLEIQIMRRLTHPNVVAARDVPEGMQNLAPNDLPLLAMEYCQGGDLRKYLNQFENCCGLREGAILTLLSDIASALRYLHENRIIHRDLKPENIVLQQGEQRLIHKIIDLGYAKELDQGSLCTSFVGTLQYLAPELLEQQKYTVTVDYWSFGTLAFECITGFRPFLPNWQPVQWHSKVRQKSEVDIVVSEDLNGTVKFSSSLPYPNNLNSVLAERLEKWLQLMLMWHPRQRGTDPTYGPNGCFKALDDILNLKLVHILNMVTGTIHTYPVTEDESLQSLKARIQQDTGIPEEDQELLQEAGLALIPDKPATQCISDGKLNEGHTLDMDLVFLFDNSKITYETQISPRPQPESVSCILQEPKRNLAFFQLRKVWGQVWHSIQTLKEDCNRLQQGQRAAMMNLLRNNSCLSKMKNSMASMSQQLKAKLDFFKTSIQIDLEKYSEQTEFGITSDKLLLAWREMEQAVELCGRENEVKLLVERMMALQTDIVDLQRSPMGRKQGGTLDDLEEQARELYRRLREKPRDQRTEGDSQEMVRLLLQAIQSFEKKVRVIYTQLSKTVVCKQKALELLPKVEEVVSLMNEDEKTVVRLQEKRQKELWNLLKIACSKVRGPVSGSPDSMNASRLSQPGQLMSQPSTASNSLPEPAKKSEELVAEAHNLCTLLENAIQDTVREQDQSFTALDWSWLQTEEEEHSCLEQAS

off-target kinases [2] = biological target: off-target kinases (Homo sapiens, UniProt P16234, D842V); details: PDGFRA D842V, ATP Km app, ZLYTE
off-target kinases [3] = biological target: off-target kinases (Homo sapiens, UniProt P42685); details: FRK (PTK5), ZLYTE, ATP Km app
off-target kinases [4] = biological target: T2, off-target kinases (Homo sapiens, UniProt Q8IVH8); details: MAP4K3 (GLK), LanthaScreen Binding
T2 sequence (Q8IVH8 1-894): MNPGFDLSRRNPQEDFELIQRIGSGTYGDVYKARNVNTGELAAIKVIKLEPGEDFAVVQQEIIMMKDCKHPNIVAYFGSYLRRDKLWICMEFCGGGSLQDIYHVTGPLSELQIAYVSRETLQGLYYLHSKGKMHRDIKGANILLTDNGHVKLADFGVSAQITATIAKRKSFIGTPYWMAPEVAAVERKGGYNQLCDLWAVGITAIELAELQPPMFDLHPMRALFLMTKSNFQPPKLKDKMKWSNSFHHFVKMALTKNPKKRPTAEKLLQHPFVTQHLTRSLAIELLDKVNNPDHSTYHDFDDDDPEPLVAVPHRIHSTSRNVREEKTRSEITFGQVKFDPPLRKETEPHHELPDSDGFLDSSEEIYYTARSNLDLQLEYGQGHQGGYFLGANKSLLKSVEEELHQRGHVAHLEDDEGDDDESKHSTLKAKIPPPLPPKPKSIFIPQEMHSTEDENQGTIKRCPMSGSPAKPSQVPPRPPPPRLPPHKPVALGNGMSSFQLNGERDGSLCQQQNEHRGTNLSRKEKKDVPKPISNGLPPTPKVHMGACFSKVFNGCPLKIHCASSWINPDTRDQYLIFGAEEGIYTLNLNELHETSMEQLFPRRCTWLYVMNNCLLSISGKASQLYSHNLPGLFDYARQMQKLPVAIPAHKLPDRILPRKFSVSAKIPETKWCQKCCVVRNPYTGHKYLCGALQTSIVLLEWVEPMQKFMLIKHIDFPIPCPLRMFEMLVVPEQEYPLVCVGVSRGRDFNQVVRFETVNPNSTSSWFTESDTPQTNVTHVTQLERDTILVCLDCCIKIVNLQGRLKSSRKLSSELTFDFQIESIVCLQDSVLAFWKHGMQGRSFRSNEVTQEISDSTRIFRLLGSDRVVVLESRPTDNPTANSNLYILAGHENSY

Chain of off-target kinases (Homo sapiens, UniProt P16234, D842V) (P16234 24-1089 D842V): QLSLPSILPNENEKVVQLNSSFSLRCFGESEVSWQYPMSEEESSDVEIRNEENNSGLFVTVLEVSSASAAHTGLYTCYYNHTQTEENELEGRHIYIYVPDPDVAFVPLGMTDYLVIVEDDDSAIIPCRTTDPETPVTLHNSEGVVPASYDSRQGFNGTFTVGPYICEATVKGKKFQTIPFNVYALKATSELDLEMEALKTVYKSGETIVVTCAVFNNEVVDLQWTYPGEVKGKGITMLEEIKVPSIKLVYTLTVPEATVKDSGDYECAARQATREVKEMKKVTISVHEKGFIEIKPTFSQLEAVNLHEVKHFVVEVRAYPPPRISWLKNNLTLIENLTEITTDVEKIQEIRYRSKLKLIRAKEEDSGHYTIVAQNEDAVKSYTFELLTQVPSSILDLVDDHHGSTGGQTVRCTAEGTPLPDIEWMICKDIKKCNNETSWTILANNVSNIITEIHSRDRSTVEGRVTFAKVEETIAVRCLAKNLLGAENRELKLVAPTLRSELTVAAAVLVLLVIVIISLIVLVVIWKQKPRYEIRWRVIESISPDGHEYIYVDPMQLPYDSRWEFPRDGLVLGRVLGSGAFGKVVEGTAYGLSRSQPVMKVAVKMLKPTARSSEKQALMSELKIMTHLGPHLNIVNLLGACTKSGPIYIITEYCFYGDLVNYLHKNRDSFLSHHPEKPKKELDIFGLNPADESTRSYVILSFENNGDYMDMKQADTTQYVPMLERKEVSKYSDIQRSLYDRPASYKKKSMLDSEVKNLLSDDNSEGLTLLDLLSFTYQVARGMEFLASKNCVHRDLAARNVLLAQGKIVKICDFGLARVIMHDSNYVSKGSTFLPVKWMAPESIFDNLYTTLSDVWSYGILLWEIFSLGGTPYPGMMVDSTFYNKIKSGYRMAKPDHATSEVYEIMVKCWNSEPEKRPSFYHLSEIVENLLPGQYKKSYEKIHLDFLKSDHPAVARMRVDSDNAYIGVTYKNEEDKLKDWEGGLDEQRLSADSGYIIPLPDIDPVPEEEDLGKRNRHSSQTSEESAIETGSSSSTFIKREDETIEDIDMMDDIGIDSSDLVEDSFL
Chain of off-target kinases (Homo sapiens, UniProt P42685) (P42685 whole entry): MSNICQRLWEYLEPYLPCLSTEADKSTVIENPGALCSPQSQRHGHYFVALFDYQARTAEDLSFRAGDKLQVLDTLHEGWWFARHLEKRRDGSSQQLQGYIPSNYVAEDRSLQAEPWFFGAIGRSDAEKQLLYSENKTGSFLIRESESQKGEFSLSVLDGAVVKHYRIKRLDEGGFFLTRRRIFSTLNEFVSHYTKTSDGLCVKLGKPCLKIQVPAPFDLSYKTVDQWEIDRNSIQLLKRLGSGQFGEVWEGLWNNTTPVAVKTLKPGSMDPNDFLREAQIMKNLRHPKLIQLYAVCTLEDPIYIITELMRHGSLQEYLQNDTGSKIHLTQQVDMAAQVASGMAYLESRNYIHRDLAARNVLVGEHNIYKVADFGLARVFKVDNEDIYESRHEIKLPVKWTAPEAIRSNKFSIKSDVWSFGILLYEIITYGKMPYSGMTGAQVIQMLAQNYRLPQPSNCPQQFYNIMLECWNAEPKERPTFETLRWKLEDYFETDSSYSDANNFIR

In the case of N#Cc1cc(-c2ncnc(Nc3ccc(N4CCN(C5COC5)CC4)cc3)n2)ccc1OC1CCOCC1 [Compound 1, 5-(4-((4-(4-(oxetan-3-yl)piperazin-1-yl)phenyl)amino)-1,3,5-triazin-2-yl)-2-((tetrahydro-2H-pyran-4-yl)oxy)benzonitrile], the inhibition (off-target kinases [1]; read-out: % Inhibition 1) is reported as 52%, the inhibition (off-target kinases [1]; read-out: % Inhibition 2) is reported as 39% and the inhibition (off-target kinases [1]; read-out: % Inhibition Avg) is reported as 45%. It also gave an inhibition (off-target kinases [2]; read-out: % Inhibition 1) of 77%, an inhibition (off-target kinases [2]; read-out: % Inhibition 2) of 73% and an inhibition (off-target kinases [2]; read-out: % Inhibition Avg) of 75%. The inhibition (off-target kinases [3]; read-out: % Inhibition 1) was 11%, the inhibition (off-target kinases [3]; read-out: % Inhibition 2) was 13% and the inhibition (off-target kinases [3]; read-out: % Inhibition Avg) was 12%. For the same compound, the inhibition (off-target kinases [4]; read-out: % Inhibition 1) was 16%, the inhibition (off-target kinases [4]; read-out: % Inhibition 2) was 21% and the inhibition (off-target kinases [4]; read-out: % Inhibition Avg) was 18%.
